{"source": "patent US4849405A", "about": "“Oral insulin and a method of making the same” (priority 1986, dated 1989)", "test_system": "white laboratory rats", "assay": "Blood glucose level in rats before and three hours after administration of oral insulin preparation", "type": "in vivo", "conditions": "rat; preparation containing 5 units of bovine insulin; three hours after administration", "method": "Two white laboratory rats, weighing 177 and 197 grams, respectively, were used in this experiment. One rat was administered a preparation of oral insulin according to the present invention containing 5 units of insulin; a formulation of the oral insulin according to the present invention containing 10 units of bovine insulin was administered to the second rat. Blood samples were drawn from each animal before and three hours after administration of the oral insulin preparation. The results given below are expressed as the percentage of the pre-experiment blood glucose level.\nOne white laboratory rat weighing 181 grams received a non-encapsulated preparation containing 5 units of free bovine insulin. This animal served as the control. After three hours, blood glucose level was 98.7% of the pre-experiment blood glucose level."}
{"substance": "free bovine insulin: non-encapsulated preparation containing 5 units of free bovine insulin; served as the control", "values": [{"measurement": "blood glucose level as percentage of the pre-experiment blood glucose level", "result": 98.7, "unit": "%"}]}
